{
  "source": "paper PMC11093748",
  "about": "“De novo identification of CD4^+ T cell epitopes” (Nature Methods, 2024)",
  "test_in_all_cases": "Single SABR-II co-incubation, TCR analogs",
  "type_in_all_cases": "cell-based, mouse",
  "details_in_all_cases": "Fig 4B",
  "key": {"[1]": {"system": "TCR 4 Analog 2", "excerpt": "(§1) We hypothesized that computational grouping of TCR specificities may reveal closely related TCRs that potentially recognize the same epitope(s), similar to the reverse epitope discovery approach (Fig. 4a). In the absence of experimental antigen discovery, grouping of TCRs is not informative of reactivity; however, we hypothesized that TCRs that co-clustered with SABR-II de-convoluted TCRs bind to the same antigens. To test this, we used three TCR-similarity search algorithms: GLIPH2 (refs. [38],[69]), tcrdist3 (ref. [37]) and CoNGA[39]. All three algorithms take slightly different approaches to group TCR sequences and generate clusters of TCR sequences that share high sequence similarity. In addition, CoNGA considers the transcriptional similarities among T cell clones. Using CoNGA, we defined TCR clusters for two TCRs, TCR4 and TCR6B, and identified analogs that slightly differed in sequences. Moreover, for TCR30, we were able to identify six TCR analogs that co-clustered in CoNGA analysis as well as GLIPH2. For TCR11, we first identified a gene expression (GEX) cluster that had ~50 TCRs that clustered based on gene expression. Using tcrdist3, we calculated the relative distance of each of these TCRs from TCR11 and selected the top seven clonotypes for expression. Together, 16 TCRs were identified as analogs of the experimentally de-convoluted TCRs (Extended Data Fig. 8). These TCRs were cloned and expressed in Jurkat cells. We performed co-incubation assays using single SABR-IIs and observed that 5 of 16 TCRs recognized the same epitopes as the parental TCRs (Fig. 4b). As a result, we were able to identify the cognate epitopes of five additional TCRs from our dataset that had otherwise not been selected for SABR-II screening based on our clonal expansion cutoff.\n(§2) Exported clonotypes were used as inputs for GLIPH2 (ref. [69]). For CoNGA, the merged dataset was exported as a .h5ad file and used as an input along with the CellRanger vdj output file. CoNGA analysis was performed using default parameters. Pairwise relative distances among TCRs were calculated using tcrdist3 (ref. [37]). CoNGA, tcrdist3 and GLIPH2 output files were searched manually for analogs that co-cluster with experimentally de-convoluted TCRs. Analogs were synthesized and cloned as described above.\n(§3) For SABR library screens, 3 × 10^6 NFAT–GFP Jurkat cells expressing the SABR library were labeled with CellTrace Violet (BioLegend) according to the manufacturer’s protocol before incubation with 3 × 10^6 Jurkat cells expressing the TCR of interest. These mixtures were incubated in a six-well plate for 16–20 h. Cells were stained with anti-CD69-APC-Cy7 where indicated (BioLegend) and the top 1–2% of GFP^+CD69^+ cells were sorted for genomic DNA extraction, indexing and sequencing (see below). Multiplexed assays were scaled on a per-TCR basis (for example 3 × 10^6 for each of three TCRs against 9 × 10^6 library cells). For single SABR assays, unless otherwise defined, 5 × 10^5 SABR expressing NFAT–GFP Jurkat cells (or 5KC cells) were labeled with CellTrace Violet (BioLegend) according to the manufacturer’s protocol before incubation with 5 × 10^5 TCR-expressing Jurkat cells (or 5KC cells) in a round-bottom 96-well plate for 16–20 h. Cells were stained with anti-CD69-APC-Cy7 when indicated and acquired on the Attune NxT flow cytometer (Thermo Fisher Scientific). All flow analysis was performed using FlowJo (BD). For Daudi cell co-culture, 1 × 10^6 Jurkat cells expressing the TCR of interest were incubated with 1 × 10^6 Daudi cells expressing a SABR of interest for 3 days. On day 3, cells were labeled with anti-RT1B-PE and anti-Fas-APC-Cy7 before being acquired on the Attune NxT flow cytometer."}, "[2]": {"system": "TCR 4 Analog 1", "excerpt": "as §1, §2, §3"}, "[3]": {"system": "TCR 30 Analog 4", "excerpt": "as §1, §2, §3"}, "[4]": {"system": "TCR 11 Analog 7", "excerpt": "as §1, §2, §3"}, "[5]": {"system": "TCR 30 Analog 1", "excerpt": "as §1, §2, §3"}, "[6]": {"system": "TCR 30 Analog 2", "excerpt": "as §1, §2, §3"}, "[7]": {"system": "TCR 11 Analog 6", "excerpt": "as §1, §2, §3"}, "[8]": {"system": "TCR 11 Analog 3", "excerpt": "as §1, §2, §3"}, "[9]": {"system": "TCR 30 Analog 5", "excerpt": "as §1, §2, §3"}, "[10]": {"system": "TCR 30 Analog 3", "excerpt": "as §1, §2, §3"}, "[11]": {"system": "TCR 11 Analog 2", "excerpt": "as §1, §2, §3"}, "[12]": {"system": "TCR 11 Analog 1", "excerpt": "as §1, §2, §3"}, "[13]": {"system": "TCR 30 Analog 6", "excerpt": "as §1, §2, §3"}, "[14]": {"system": "TCR 11 Analog 4", "excerpt": "as §1, §2, §3"}, "[15]": {"system": "TCR 11 Analog 5", "excerpt": "as §1, §2, §3"}},
  "data": [
    {"sequence": "LQTLALNAARDP", "values": [
      {"measurement": "%GFP+CD69+ cells of SABR-NFAT-GFP-Jurkat cells", "setting": "[1]; technical replicate 1", "value": 1, "unit": "%"},
      {"measurement": "%GFP+CD69+ cells of SABR-NFAT-GFP-Jurkat cells", "setting": "[1]; technical replicate 2", "value": 0.84, "unit": "%"},
      {"measurement": "%GFP+CD69+ cells of SABR-NFAT-GFP-Jurkat cells", "setting": "[2]; technical replicate 1", "value": 1.53, "unit": "%"},
      {"measurement": "%GFP+CD69+ cells of SABR-NFAT-GFP-Jurkat cells", "setting": "[2]; technical replicate 2", "value": 1.83, "unit": "%"}
    ]},
    {"sequence": "SHLVEALYLVCGERG", "values": [
      {"measurement": "%GFP+CD69+ cells of SABR-NFAT-GFP-Jurkat cells", "setting": "[3]; replicate 1", "value": 1.2, "unit": "%"},
      {"measurement": "%GFP+CD69+ cells of SABR-NFAT-GFP-Jurkat cells", "setting": "[3]; replicate 2", "value": 1.13, "unit": "%"},
      {"measurement": "%GFP+CD69+ cells of SABR-NFAT-GFP-Jurkat cells", "setting": "[3]; replicate 3", "value": 1.05, "unit": "%"},
      {"measurement": "%GFP+CD69+ cells of SABR-NFAT-GFP-Jurkat cells", "setting": "[4]; technical replicate 1", "value": 0.78, "unit": "%"},
      {"measurement": "%GFP+CD69+ cells of SABR-NFAT-GFP-Jurkat cells", "setting": "[4]; technical replicate 2", "value": 1.05, "unit": "%"},
      {"measurement": "%GFP+CD69+ cells of SABR-NFAT-GFP-Jurkat cells", "setting": "[5]; replicate 1", "value": 3.25, "unit": "%"},
      {"measurement": "%GFP+CD69+ cells of SABR-NFAT-GFP-Jurkat cells", "setting": "[5]; replicate 2", "value": 3.04, "unit": "%"},
      {"measurement": "%GFP+CD69+ cells of SABR-NFAT-GFP-Jurkat cells", "setting": "[5]; replicate 3", "value": 3.1, "unit": "%"},
      {"measurement": "%GFP+CD69+ cells of SABR-NFAT-GFP-Jurkat cells", "setting": "[6]; replicate 1", "value": 19.2, "unit": "%"},
      {"measurement": "%GFP+CD69+ cells of SABR-NFAT-GFP-Jurkat cells", "setting": "[6]; replicate 2", "value": 19, "unit": "%"},
      {"measurement": "%GFP+CD69+ cells of SABR-NFAT-GFP-Jurkat cells", "setting": "[6]; replicate 3", "value": 20, "unit": "%"},
      {"measurement": "%GFP+CD69+ cells of SABR-NFAT-GFP-Jurkat cells", "setting": "[7]; technical replicate 1", "value": 1, "unit": "%"},
      {"measurement": "%GFP+CD69+ cells of SABR-NFAT-GFP-Jurkat cells", "setting": "[7]; technical replicate 2", "value": 1.08, "unit": "%"},
      {"measurement": "%GFP+CD69+ cells of SABR-NFAT-GFP-Jurkat cells", "setting": "[8]; technical replicate 1", "value": 0.85, "unit": "%"},
      {"measurement": "%GFP+CD69+ cells of SABR-NFAT-GFP-Jurkat cells", "setting": "[8]; technical replicate 2", "value": 1.04, "unit": "%"},
      {"measurement": "%GFP+CD69+ cells of SABR-NFAT-GFP-Jurkat cells", "setting": "[9]; replicate 1", "value": 34.3, "unit": "%"},
      {"measurement": "%GFP+CD69+ cells of SABR-NFAT-GFP-Jurkat cells", "setting": "[9]; replicate 2", "value": 35.1, "unit": "%"},
      {"measurement": "%GFP+CD69+ cells of SABR-NFAT-GFP-Jurkat cells", "setting": "[9]; replicate 3", "value": 34.2, "unit": "%"},
      {"measurement": "%GFP+CD69+ cells of SABR-NFAT-GFP-Jurkat cells", "setting": "[10]; replicate 1", "value": 1.16, "unit": "%"},
      {"measurement": "%GFP+CD69+ cells of SABR-NFAT-GFP-Jurkat cells", "setting": "[10]; replicate 2", "value": 1.27, "unit": "%"},
      {"measurement": "%GFP+CD69+ cells of SABR-NFAT-GFP-Jurkat cells", "setting": "[10]; replicate 3", "value": 1.1, "unit": "%"},
      {"measurement": "%GFP+CD69+ cells of SABR-NFAT-GFP-Jurkat cells", "setting": "[11]; technical replicate 1", "value": 17.2, "unit": "%"},
      {"measurement": "%GFP+CD69+ cells of SABR-NFAT-GFP-Jurkat cells", "setting": "[11]; technical replicate 2", "value": 16.8, "unit": "%"},
      {"measurement": "%GFP+CD69+ cells of SABR-NFAT-GFP-Jurkat cells", "setting": "[12]; technical replicate 1", "value": 0.66, "unit": "%"},
      {"measurement": "%GFP+CD69+ cells of SABR-NFAT-GFP-Jurkat cells", "setting": "[12]; technical replicate 2", "value": 0.81, "unit": "%"},
      {"measurement": "%GFP+CD69+ cells of SABR-NFAT-GFP-Jurkat cells", "setting": "[13]; replicate 1", "value": 1.04, "unit": "%"},
      {"measurement": "%GFP+CD69+ cells of SABR-NFAT-GFP-Jurkat cells", "setting": "[13]; replicate 2", "value": 1.01, "unit": "%"},
      {"measurement": "%GFP+CD69+ cells of SABR-NFAT-GFP-Jurkat cells", "setting": "[13]; replicate 3", "value": 0.97, "unit": "%"},
      {"measurement": "%GFP+CD69+ cells of SABR-NFAT-GFP-Jurkat cells", "setting": "[14]; technical replicate 1", "value": 0.89, "unit": "%"},
      {"measurement": "%GFP+CD69+ cells of SABR-NFAT-GFP-Jurkat cells", "setting": "[14]; technical replicate 2", "value": 0.88, "unit": "%"},
      {"measurement": "%GFP+CD69+ cells of SABR-NFAT-GFP-Jurkat cells", "setting": "[15]; technical replicate 1", "value": 20.3, "unit": "%"},
      {"measurement": "%GFP+CD69+ cells of SABR-NFAT-GFP-Jurkat cells", "setting": "[15]; technical replicate 2", "value": 19.7, "unit": "%"}
    ]}
  ]
}
